Reference: article PMC7398594 (Neurotoxicology, 2020)

System: HEI-OC1 cells
Experiment: MTT cellular viability assay
Format: cell-based, mouse
Details: HEI-OC1 cell culture, 24 Hr treatment, ± standard deviation

How did the IC50 turn out when `N.N.[Cl][Pt][Cl]` [cisplatin] was run?
Its IC50 is 1660 ± 330 nM.

For `[NH3+][Pt-2]([NH3+])([Cl])[n+]1cc2ccccc2c2ccccc21` (stereo not drawn) [phenanthriplatin, cis-diammine (phenanthridine) chloroplatinum(II)], which IC50 is on record?
The IC50 was 1640 ± 190 nM.

Which IC50 does the source give for `[NH3+][Pt-2]([NH3+])([Cl])[n+]1ccccc1` (stereo not drawn) [pyriplatin, cis-diammine (pyridine) chloroplatinum(II)] here?
The IC50 was 11100 ± 280 nM.

Same assay, conditions: HEI-OC1 cell culture, 48 Hr treatment, ± standard deviation

For `N.N.[Cl][Pt][Cl]` [cisplatin], which IC50 is on record?
Its IC50 is 4520 ± 170 nM.

With `[NH3+][Pt-2]([NH3+])([Cl])[n+]1cc2ccccc2c2ccccc21` (stereo not drawn) [phenanthriplatin, cis-diammine (phenanthridine) chloroplatinum(II)] as the compound, how does the IC50 read?
The IC50 was 2310 ± 290 nM.

`[NH3+][Pt-2]([NH3+])([Cl])[n+]1ccccc1` (stereo not drawn) [pyriplatin, cis-diammine (pyridine) chloroplatinum(II)] was tested. Which IC50 did it give?
The IC50 was 2520 ± 110 nM.

System: HEI-OC1 cells
Experiment: Reactive oxygen species assay
Format: cell-based, mouse
Details: 24 hours, treated at compound IC50 value

`N.N.[Cl][Pt][Cl]` [cisplatin] was tested. Which “ROS yield, % of negative control” value did it give?
The value was 751%.

With `[NH3+][Pt-2]([NH3+])([Cl])[n+]1cc2ccccc2c2ccccc21` (stereo not drawn) [phenanthriplatin, cis-diammine (phenanthridine) chloroplatinum(II)] as the compound, how does the “ROS yield, % of negative control” value read?
Its value is 741%.

For `[NH3+][Pt-2]([NH3+])([Cl])[n+]1ccccc1` (stereo not drawn) [pyriplatin, cis-diammine (pyridine) chloroplatinum(II)], which “ROS yield, % of negative control” value is on record?
Its value is 618%.

System: HEI-OC1 cells
Experiment: Mitochondrial membrane potential assay
Format: cell-based, mouse
Details: 24 hours, treated at compound IC50 value

How did the “mitochondrial membrane polarization (FL1 to FL3 ratio), % of negative control” value turn out when `N.N.[Cl][Pt][Cl]` [cisplatin] was run?
The value was 109%.

How did the “mitochondrial membrane polarization (FL1 to FL3 ratio), % of negative control” value turn out when `[NH3+][Pt-2]([NH3+])([Cl])[n+]1cc2ccccc2c2ccccc21` (stereo not drawn) [phenanthriplatin, cis-diammine (phenanthridine) chloroplatinum(II)] was run?
Its value is 98%.

How did the “mitochondrial membrane polarization (FL1 to FL3 ratio), % of negative control” value turn out when `[NH3+][Pt-2]([NH3+])([Cl])[n+]1ccccc1` (stereo not drawn) [pyriplatin, cis-diammine (pyridine) chloroplatinum(II)] was run?
The value was 101%.

Same assay, conditions: 48 hours, treated at compound IC50 value

For `N.N.[Cl][Pt][Cl]` [cisplatin], which “mitochondrial membrane polarization (FL1 to FL3 ratio), % of negative control” value is on record?
The value was 110%.

How did the “mitochondrial membrane polarization (FL1 to FL3 ratio), % of negative control” value turn out when `[NH3+][Pt-2]([NH3+])([Cl])[n+]1cc2ccccc2c2ccccc21` (stereo not drawn) [phenanthriplatin, cis-diammine (phenanthridine) chloroplatinum(II)] was run?
Its value is 88%.

`[NH3+][Pt-2]([NH3+])([Cl])[n+]1ccccc1` (stereo not drawn) [pyriplatin, cis-diammine (pyridine) chloroplatinum(II)] was tested. Which “mitochondrial membrane polarization (FL1 to FL3 ratio), % of negative control” value did it give?
The value was 90%.

System: caspase-3/7 activity in HEI-OC1 cells
Experiment: Caspase-3/7 luminescence assay
Format: cell-based, mouse
Details: 24 hours, treated at compound IC50 value

For `N.N.[Cl][Pt][Cl]` [cisplatin], which “caspase-3/7 activity, % of negative control” value (shortened to “caspase-3/7 activity, %”) is on record?
Its value is 86%.

For `[NH3+][Pt-2]([NH3+])([Cl])[n+]1cc2ccccc2c2ccccc21` (stereo not drawn) [phenanthriplatin, cis-diammine (phenanthridine) chloroplatinum(II)], which “caspase-3/7 activity, %” value is on record?
Its value is 83%.

`[NH3+][Pt-2]([NH3+])([Cl])[n+]1ccccc1` (stereo not drawn) [pyriplatin, cis-diammine (pyridine) chloroplatinum(II)] was tested. Which “caspase-3/7 activity, %” value did it give?
The value was 82%.

Same assay, conditions: 48 hours, treated at compound IC50 value

How did the “caspase-3/7 activity, %” value turn out when `N.N.[Cl][Pt][Cl]` [cisplatin] was run?
Its value is 352%.

Which “caspase-3/7 activity, %” value does the source give for `[NH3+][Pt-2]([NH3+])([Cl])[n+]1cc2ccccc2c2ccccc21` (stereo not drawn) [phenanthriplatin, cis-diammine (phenanthridine) chloroplatinum(II)] here?
The value was 89%.

How did the “caspase-3/7 activity, %” value turn out when `[NH3+][Pt-2]([NH3+])([Cl])[n+]1ccccc1` (stereo not drawn) [pyriplatin, cis-diammine (pyridine) chloroplatinum(II)] was run?
Its value is 101%.
